The subject of data set [1] is MOLM-13 tumors. Particulars: established MOLM-13 tumors, NSG mice, 4 weeks; Azacitidine 2 mg/kg ip QD × 7; Compound A1 10 mg/kg po QD × 28.
Procedure: 11) Efficacy of Menin-MLL Inhibitor in Combination with Azacitidine, in MOLM-13 (KMT2A-r) IV Model in NSG Mice
Each mouse received an injection of 1×10^5 MOLM-13 cells, and all other parameters were conducted as described for experiment (10).
In another data set the test system is OCI-AML3 tumors. To be noted: established OCI-AML3 tumors, NSG mice, 4 weeks; Azacitidine 2 mg/kg ip QD × 7; Compound A1 30 mg/kg po QD × 28.
Data set [2] in a line: Metabolic stability in mouse liver microsomes. Type of data set: in vitro ADME. Particulars: liver microsomes, pH 7.4, 0.5 mg/mL microsomes protein, read-out: Mouse LM Clint. As for the experimental part:
4) Metabolic Stability in Human/Mouse Liver Microsomes
The objective of this study is to measure in vitro metabolic stability of test compound(s) in human and mouse liver microsomes and provide quantitative information on the rate of metabolic turnover (i.e., determination of the apparent intrinsic clearance of test).
Test items were prepared at a stock concentration of 10 mM in DMSO. For determination of metabolic turnover, a final working solution was prepared by adding 2 μL of 10 mM DMSO stock solution for test compound or positive control compounds to 198 μL of acetonitrile (100 μM final concentration).
Incubations were performed as follows: First, liver microsomes were thawed on ice and a master solution containing liver microsomes in 100 mM PBS (phosphate-buffered saline) at pH 7.4 is prepared. Next, the liver microsomes solution was added to the incubation plates and 10 mM NADPH (Nicotinamide-adenine dinucleotide phosphate) was added (MW: 833.4 g/mol; Roche Diagnostics GmbH1, Germany. Dissolved in phosphate buffer (100 mmol/L, pH 7.4)). The mixture was mixed for 10 seconds and pre-warmed in the incubation plate at 37° C. for 10 minutes. The metabolic reaction was initiated with the addition of 5 μL of the 100 μM working solution for test compound or positive control compounds to incubation plate (final test item concentration=1 μM). The reaction final mixture should contain 1 mM NADPH, 0.5 mg/mL microsomes protein and 1 μM test compound or positive control compound in 100 mM PBS at pH 7.4. The percentage of organic solvent in incubation mixture is 1% with DMSO 0.02%.
The reaction was quenched by transferring 50 μL of the incubated mixture at selected time points into the quenching plate containing 200 μL of cold methanol. […]
All calculations were carried out using Microsoft Excel. The slope value, k, was determined by linear regression of the natural logarithm of the remaining percentage of the parent drug vs. incubation time curve.
The in vitro half-life (in vitro t1/2) was determined from the slope value: […]
For orientation: Liver microsomes are vesicles of endoplasmic reticulum, rich in cytochrome P450 enzymes.

In a further data set the target is hERG potassium channel (Homo sapiens (Human), UniProt Q12809). The data set is described as follows: Membrane potassium current IKr in hERG transfected CHO cells (Protocol 1, QPatch). Type of data set: cell-based. Particulars: Protocol 1, CHO cells. As for the experimental part:
Experiments were performed using CHO cells stably expressing the hERG potassium channel. Cells were grown at 37° C. and 5% CO2 in culture flasks in Ham's F12 Medium supplemented with 10% heat-inactivated fetal calf serum, hygromycin B (100 μg/ml) and geneticin (100 μg/ml). For use in the automated patch-clamp system QPatch (Sophion) cells were harvested to obtain cell suspension of single cells. […]
Patch-clamp experiments were performed in the voltage-clamp mode and whole-cell currents were recorded with an automated patch-clamp assay utilizing the QPatch system (Sophion). Current signals were amplified and digitized, stored and analyzed by using the QPatch assay software.
The holding potential was −80 mV. The hERG current (K^+-selective outward current) was determined as the maximal tail current at −40 mV after a 2 second depolarization to +60 mV. […] The effect of each concentration was determined after 5 min as an average current of 3 sequential voltage pulses. […]
Concentration/response relations were calculated by non-linear least-squares fits to the individual data points. The half-maximal inhibiting concentration (IC50) was calculated by the fitting routine.

Data set [3] is described as follows: Mouse PK (in vivo T1/2 and oral bioavailability). Particulars: male, CD-1, mouse, in vivo, fasted male CD-1 mice, formulating agent: A HP-β-CD, A3 Pyrogen free water. On the procedure:
3) Mouse PK (In Vivo T1/2 and Oral Bioavailability)
In vivo pharmacokinetics (PK) were assessed in fasted male CD-1 mice (age 6-8 weeks) following a single intravenous (IV, 0.5 or 1.0 mg/kg administered at 2.5 ml/kg) or oral (PO, 5 mg/kg administered at 10 ml solution/kg) dose of test article formulated in a 20% (w:vol) HP-β-CD solution or in Pyrogen free water.
Plasma and/or whole blood samples were collected from the dorsal metatarsal vein at desired timepoints via serial capillary microsampling (approx. 0.03 mL) using EDTA as an anticoagulant. Concentrations of compound in the plasma and blood samples were analyzed using a qualified LC-MS/MS method. In silico analysis of main pharmacokinetic parameters was performed using WinNonlin (Phoenix™, version 6.1) or similar software.)

Data set [4] relates to MOLM-13 tumors. The data set is described as follows: Efficacy of menin-MLL inhibitor in combination with gilteritinib in MOLM-13 (KMT2A-r) IV model. Type of data set: in vivo. To be noted: established MOLM-13 tumors, NSG mice, 4 weeks; Gilteritinib 10 mg/kg po QD × 28; Compound A1 10 mg/kg po QD × 28. The source says: 12) Efficacy of Menin-MLL Inhibitor in Combination with Gilteritinib, in MOLM-13 (KMT2A-r) IV Model in NSG Mice

Like-named read-outs stand apart in the source and are kept apart here.

Chain of hERG potassium channel (Q12809 whole entry): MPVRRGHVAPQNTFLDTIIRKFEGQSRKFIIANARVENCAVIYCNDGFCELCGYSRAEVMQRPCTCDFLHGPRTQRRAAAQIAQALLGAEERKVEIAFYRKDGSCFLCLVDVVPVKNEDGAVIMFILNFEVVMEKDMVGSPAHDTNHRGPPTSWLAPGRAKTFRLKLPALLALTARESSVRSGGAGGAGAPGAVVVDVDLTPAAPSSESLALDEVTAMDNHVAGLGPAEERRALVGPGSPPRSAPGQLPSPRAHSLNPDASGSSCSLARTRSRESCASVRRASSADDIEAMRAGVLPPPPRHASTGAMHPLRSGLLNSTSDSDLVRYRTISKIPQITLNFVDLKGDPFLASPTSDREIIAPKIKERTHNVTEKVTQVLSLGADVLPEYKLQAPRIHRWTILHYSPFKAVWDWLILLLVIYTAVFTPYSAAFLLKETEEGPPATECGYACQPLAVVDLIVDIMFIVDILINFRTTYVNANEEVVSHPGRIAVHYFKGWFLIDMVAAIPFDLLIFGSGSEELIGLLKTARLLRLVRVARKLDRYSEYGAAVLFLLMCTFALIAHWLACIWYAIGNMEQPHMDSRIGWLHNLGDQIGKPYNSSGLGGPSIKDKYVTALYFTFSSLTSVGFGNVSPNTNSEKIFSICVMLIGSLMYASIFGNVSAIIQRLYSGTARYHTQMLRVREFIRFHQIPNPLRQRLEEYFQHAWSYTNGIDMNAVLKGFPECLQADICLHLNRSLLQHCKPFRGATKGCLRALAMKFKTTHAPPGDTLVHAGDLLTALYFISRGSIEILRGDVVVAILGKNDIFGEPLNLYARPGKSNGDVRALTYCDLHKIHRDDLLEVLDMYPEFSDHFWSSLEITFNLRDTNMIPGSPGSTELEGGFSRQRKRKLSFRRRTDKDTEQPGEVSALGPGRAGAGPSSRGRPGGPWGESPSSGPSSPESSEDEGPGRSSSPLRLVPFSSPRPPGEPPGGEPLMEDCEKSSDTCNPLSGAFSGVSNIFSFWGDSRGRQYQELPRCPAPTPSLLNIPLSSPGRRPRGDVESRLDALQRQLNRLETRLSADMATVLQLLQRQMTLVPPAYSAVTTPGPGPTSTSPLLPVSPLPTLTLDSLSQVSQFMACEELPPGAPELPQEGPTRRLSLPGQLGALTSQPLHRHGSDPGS
Procedure for OCI-AML3 tumors: For survival assessment, results were plotted as the percentage survival against days post tumor implant. Negative clinical signs and/or ≥20% body weight loss was used as a surrogate endpoint for death. Median survival was determined utilizing Kaplan-Meier survival analysis. The percent increased life span (ILS) was calculated as: ((median survival day of treated group—median survival day of control group)/median survival day of control group)×100. Animals failing to reach the surrogate endpoint due to adverse clinical signs (such as ulcerated tumors, body weight loss, etc.) or death unrelated to treatment were censored for the survival assessment.

Take `Nc1ncn([C@@H]2O[C@H](CO)[C@@H](O)[C@H]2O)c(=O)n1` [Azacitidine]: the “% ILS” value in the data set with MOLM-13 tumors [1] is on record as “*35%”; in the data set with OCI-AML3 tumors it was “*18%”.
A word on the IC50: it is the concentration needed to halve the response being measured. Low readings indicate greater potency in that assay, high ones weaker potency in that assay. In general, half-life refers to the time in which the quantity being followed falls by half. A word on the bioavailability: it is the share of a dose that reaches the circulation, judged against a reference dose that is usually intravenous. A higher bioavailability goes with much systemic uptake. For `CCN(C(=O)c1cc(F)ccc1Oc1nncnc1N1CCC2(C1)CN([C@H](CCCN(C)CCOC)C(C)C)C2)C(C)C` [Compound A, (R)-N-ethyl-5-fluoro-N-isopropyl-2-((5-(2-(6-((2-methoxyethyl) (methyl)amino)-2-methylhexan-3-yl)-2,6-diazaspiro[3.4]octan-6-yl)-1,2,4-triazin-6-yl)oxy) benzamide], the microsomal CLint at 1 μM in data set [2] is below 7.5 µL/min/mg. Also, on hERG potassium channel, the IC50 is above 30.2 µM. In data set [3] (iv, 1 mg/kg, single IV 0.5 or 1.0 mg/kg), this compound showed a half-life of 6.7 h. Moreover, the bioavailability in data set [3] (po, 5 mg/kg, single PO 5 mg/kg) is 17%.
Turning to `CCc1nc(C(N)=O)c(Nc2ccc(N3CCC(N4CCN(C)CC4)CC3)c(OC)c2)nc1NC1CCOCC1` [Gilteritinib, gilteritinib], the “% ILS” value with MOLM-13 tumors [4] was “*63%”.
